{"source": "patent US20090215752A1", "about": "“Compounds, preparation and therapeutic use thereof” (priority 2005, published 2009)", "key": {"5-HT transporter": {"target": "T1, 5-HT transporter (Homo sapiens, UniProt P31645)", "T1 construct": "expressed in transfected cells; host or cells: HEK-293", "T1 sequence (P31645 whole entry)": "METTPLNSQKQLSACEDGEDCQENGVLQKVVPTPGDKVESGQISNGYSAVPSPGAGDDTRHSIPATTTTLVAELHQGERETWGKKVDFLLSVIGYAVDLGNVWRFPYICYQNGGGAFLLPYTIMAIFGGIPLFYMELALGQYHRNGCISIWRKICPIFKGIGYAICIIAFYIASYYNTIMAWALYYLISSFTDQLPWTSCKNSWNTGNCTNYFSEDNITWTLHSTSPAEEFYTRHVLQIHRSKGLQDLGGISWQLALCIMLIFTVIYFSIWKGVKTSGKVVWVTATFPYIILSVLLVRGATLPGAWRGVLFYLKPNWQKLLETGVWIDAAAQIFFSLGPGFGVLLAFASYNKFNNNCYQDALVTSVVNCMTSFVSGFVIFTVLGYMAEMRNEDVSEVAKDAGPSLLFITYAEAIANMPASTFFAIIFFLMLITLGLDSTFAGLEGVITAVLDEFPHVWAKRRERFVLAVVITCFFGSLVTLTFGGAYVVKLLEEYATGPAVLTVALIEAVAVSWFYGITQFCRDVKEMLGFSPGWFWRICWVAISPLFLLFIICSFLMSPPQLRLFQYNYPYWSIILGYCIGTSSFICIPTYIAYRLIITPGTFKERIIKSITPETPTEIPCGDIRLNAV", "test": "Serotonergic transporter binding ([3H]imipramine)", "conditions": "[3H]imipramine 2 nM, HEK-293 recombinant, read-out: percentage inhibition at 10 μM of control specific binding to the serotonergic transporter", "experimental": "The serotonergic 5-HT transporter was isolated from human recombinant HEK-293 cells according to the method described by Tatsumi et al. (1997), Pharmacological profile of antidepressants and related compounds at human monoamine transporters, Eur. J. Pharmacol., 340: 249-258.\nSerotonergic transporter binding was determined by a radioligand method using tritium-labelled imipramine (2 nM) as substrate (Tatsumi et al., 1999). Ligand radioactivity was determined by liquid scintillation counting. Ligand incubations were carried out for thirty minutes at 22° C. The experiment was conducted in duplicate.\nThe specific ligand binding to the serotonergic transporter was defined as the difference between the total binding and the non specific binding determined in presence of an excess of unlabelled ligand. The results obtained are presented in Table 3 hereinbelow and are expressed as percent of control specific binding and as a percent inhibition of control specific binding obtained in presence of 10 μM of substance."}, "PDE4": {"tested_on": "PDE4", "test": "Selectivity: inhibition of PDE4 (radioenzymatic assay)", "type": "biochemical, bovine", "conditions": "Table 2; for PDE4 percentage inhibition at 10 μM: 10 μM compound", "experimental": "(§1) 2.1.1. Isolation of Phosphodiesterases from Smooth Muscle A 3 g segment of bovine aortic media cut into pieces with scissors was homogenized with an ultra-turrax then a potter glass/glass homogenizer in 7 volumes by weight of buffer A containing a protease inhibitor cocktail (20 mM Tris-HCl, 0.25 M saccharose, 2 mM magnesium acetate, 1 mM dithiothreitol, 5 mM EGTA, 2000 U/ml aprotinin, 10 mg/l leupeptin and 10 mg/l soya trypsic inhibitor). The homogenizate was centrifuged at 105,000 g for 1 hour. The supernatant was loaded on a DEAE-Sephacel column (15×1.6 cm) pre-equilibrated with buffer B (buffer A without the saccharose, EGTA and protease inhibitors). The column was washed until there was no detectable absorption at 280 nm, then eluted with a linear gradient of NaCl (0-0.5 M) in buffer B. 3-ml fractions were collected and enzyme activity was determined under the conditions described hereinbelow to localize the different enzymes PDE1, PDE3, PDE4 and PDE5 which were aliquoted and frozen at −80° C. (Lugnier et al., Biochem. Phamacol., 1986, 35: 1746-1751). PDE2 was isolated from human platelets, provided by Etablissement Français du Sang-Alsace, according to Kameni Tcheudji J F et al., (J. Mol. Biol. 2001; 310: 181-791), and stored until use at −80° C. in small aliquots.\n(§2) Cyclic nucleotide phosphodiesterase activity was determined by a radioenzymatic method using tritium-labelled cyclic GMP or AMP (1 μM) as substrate (Lugnier et al., 1986). ^3H-labelled adenosine or guanosine monophosphate formed by hydrolysis of the radiolabelled cyclic nucleotide was then converted to ^3H-labelled adenosine or guanosine in a second reaction with […] in excess. The nucleoside formed was separated from the nucleotides by anion exchange chromatography. Nucleoside radioactivity was determined by liquid scintillation counting. Enzymatic incubations were carried out under conditions allowing no more than 15% hydrolysis of the substrate; each point was performed in duplicate.\n(§3) The activity of the compounds was evaluated on other phosphodiesterase isoforms, particularly basal state or calmodulin-activated PDE1 from vascular smooth muscle, PDE3, PDE4 and PDE5 from vascular smooth muscle. The results obtained are presented in Tables 1 and 2 hereinbelow and are expressed as the percentage inhibition of enzymatic activity produced by […] of the test compound."}, "PDE2": {"target": "T2, PDE2 (Homo sapiens, UniProt O00408)", "T2 construct": "PDE2 was isolated from human platelets, provided by Etablissement Français du Sang-Alsace; tissue Etablissement Français du Sang-Alsace; host or cells: human platelets", "T2 sequence (O00408 whole entry)": "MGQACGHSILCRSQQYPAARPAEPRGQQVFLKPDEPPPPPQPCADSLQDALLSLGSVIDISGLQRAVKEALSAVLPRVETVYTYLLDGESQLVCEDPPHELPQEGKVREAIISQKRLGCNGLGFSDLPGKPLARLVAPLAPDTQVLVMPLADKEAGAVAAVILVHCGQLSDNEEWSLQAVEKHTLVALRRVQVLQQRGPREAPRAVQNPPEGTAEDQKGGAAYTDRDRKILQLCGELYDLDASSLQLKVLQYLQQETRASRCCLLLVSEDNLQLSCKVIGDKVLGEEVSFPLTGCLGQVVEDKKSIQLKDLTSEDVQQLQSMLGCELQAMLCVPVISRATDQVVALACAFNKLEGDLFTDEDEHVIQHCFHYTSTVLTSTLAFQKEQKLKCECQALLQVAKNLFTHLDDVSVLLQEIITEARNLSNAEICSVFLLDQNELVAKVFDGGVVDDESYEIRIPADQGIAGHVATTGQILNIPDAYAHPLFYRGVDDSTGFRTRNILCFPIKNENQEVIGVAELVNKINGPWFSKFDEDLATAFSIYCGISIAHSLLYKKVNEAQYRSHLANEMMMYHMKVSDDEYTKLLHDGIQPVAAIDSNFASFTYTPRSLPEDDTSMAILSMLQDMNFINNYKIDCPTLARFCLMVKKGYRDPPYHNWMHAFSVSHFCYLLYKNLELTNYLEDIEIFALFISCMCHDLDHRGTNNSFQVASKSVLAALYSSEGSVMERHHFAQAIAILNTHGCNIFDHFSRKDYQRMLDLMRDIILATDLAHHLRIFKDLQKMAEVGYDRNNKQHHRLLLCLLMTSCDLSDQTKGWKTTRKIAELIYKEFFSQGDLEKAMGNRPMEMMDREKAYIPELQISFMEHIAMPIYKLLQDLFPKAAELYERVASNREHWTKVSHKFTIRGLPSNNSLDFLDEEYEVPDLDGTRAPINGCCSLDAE", "test": "Inhibition of PDE2 (radioenzymatic phosphodiesterase assay)", "type": "biochemical", "experimental": "as §1, §2\nThe concentration of substance which inhibits enzymatic activity by 50% (IC50) at 1 μM cyclic AMP was calculated by nonlinear regression from the experimental values of hydrolysis rate (Prism, GraphPad)."}, "PDE3": {"target": "T3, PDE3 (Bos taurus, UniProt A0A3Q1M1E8)", "T3 sequence (A0A3Q1M1E8 1-1126)": "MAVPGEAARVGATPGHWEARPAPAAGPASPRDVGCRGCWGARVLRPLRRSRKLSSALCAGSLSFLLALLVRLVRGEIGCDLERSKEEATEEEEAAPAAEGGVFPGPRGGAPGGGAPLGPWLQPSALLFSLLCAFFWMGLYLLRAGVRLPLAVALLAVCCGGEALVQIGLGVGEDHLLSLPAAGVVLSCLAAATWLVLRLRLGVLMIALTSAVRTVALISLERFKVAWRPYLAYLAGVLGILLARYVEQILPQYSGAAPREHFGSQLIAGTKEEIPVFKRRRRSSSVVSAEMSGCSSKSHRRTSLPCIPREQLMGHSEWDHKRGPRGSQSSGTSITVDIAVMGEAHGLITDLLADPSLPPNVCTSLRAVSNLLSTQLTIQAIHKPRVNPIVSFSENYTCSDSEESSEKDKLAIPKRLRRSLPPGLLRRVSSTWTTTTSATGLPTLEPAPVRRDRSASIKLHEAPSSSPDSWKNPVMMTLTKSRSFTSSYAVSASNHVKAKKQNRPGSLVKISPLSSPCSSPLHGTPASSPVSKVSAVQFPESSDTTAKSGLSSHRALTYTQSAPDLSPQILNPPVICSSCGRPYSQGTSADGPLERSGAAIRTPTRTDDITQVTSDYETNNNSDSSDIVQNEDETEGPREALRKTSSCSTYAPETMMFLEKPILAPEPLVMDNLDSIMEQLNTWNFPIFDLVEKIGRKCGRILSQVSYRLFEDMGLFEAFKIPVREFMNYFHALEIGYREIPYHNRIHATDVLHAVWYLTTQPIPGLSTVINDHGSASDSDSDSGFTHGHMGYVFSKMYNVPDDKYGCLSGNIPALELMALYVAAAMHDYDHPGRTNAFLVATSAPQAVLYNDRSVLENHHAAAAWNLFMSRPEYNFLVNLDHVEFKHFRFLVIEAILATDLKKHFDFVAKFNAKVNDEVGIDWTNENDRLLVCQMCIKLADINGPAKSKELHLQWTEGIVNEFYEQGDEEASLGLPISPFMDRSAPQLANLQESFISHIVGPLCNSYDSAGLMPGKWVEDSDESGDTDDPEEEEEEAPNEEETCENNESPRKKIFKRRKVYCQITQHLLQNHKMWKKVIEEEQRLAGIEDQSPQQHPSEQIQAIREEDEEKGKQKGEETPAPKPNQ", "test": "Selectivity: inhibition of PDE3 (radioenzymatic assay)", "type": "biochemical, bovine", "conditions": "Table 2; 10 μM compound; read-out: PDE3 percentage inhibition at 10 μM", "experimental": "as §1, with “PDE2 was isolated from human platelets, provided by Etablissement Français du Sang-Alsace, according to Kameni Tcheudji J F et al., (J. Mol. Biol. 2001; 310: 181-791), and stored until use at −80° C. in small aliquots.” left out\nas §2, with “The nucleoside formed was separated from the nucleotides by anion exchange chromatography.” left out, “Enzymatic incubations were carried out under conditions allowing no more than 15% hydrolysis of the substrate; each point was performed in duplicate.” left out\nas §3"}, "[1]": {"conditions": "Table 1, 10 μM compound, 1 μM cyclic AMP, read-out: PDE2 percentage inhibition at 10 μM"}}, "note": "Read-outs that look alike come from different tables or passages of the source.", "data": [{"compound": "COc1cc2c(c(OC)c1-c1ccc(Cl)cc1)C(c1cccc(C#N)c1)=NCC(=O)N2", "note": "[Compound 2, 3-[7-(4-Chloro-phenyl)-6,8-dimethoxy-2-oxo-2,3-dihydro-1H-benzo[e][1,4]diazepin-5-yl]-benzonitrile]", "values": [{"measurement": "inhibition at 10 µM", "setting": "5-HT transporter", "result": 12, "unit": "%"}, {"measurement": "PDE4 percentage inhibition at 10 μM", "setting": "PDE4", "result": 58, "unit": "%"}, {"measurement": "IC50", "setting": "PDE2", "result": 730, "unit": "nM"}, {"measurement": "inhibition at 10 µM", "setting": "PDE2; [1]", "result": 93, "unit": "%"}]}, {"compound": "COc1cc2c(c(OC)c1-c1ccccc1)C(c1cccc(C#N)c1)=NCC(=O)N2", "note": "[Compound 1, 3-(6,8-Dimethoxy-2-oxo-7-phenyl-2,3-dihydro-1H-benzo[e][1,4]diazepin-5-yl)-benzonitrile]", "values": [{"measurement": "inhibition at 10 µM", "setting": "5-HT transporter", "result": 5, "unit": "%"}, {"measurement": "PDE4 percentage inhibition at 10 μM", "setting": "PDE4", "result": 43.3, "unit": "%"}, {"measurement": "IC50", "setting": "PDE2", "result": 3000, "unit": "nM"}, {"measurement": "inhibition at 10 µM", "setting": "PDE2; read-out: PDE2 percentage inhibition at 10 μM, Table 1, 10 μM compound, 1 μM cyclic AMP", "result": 9, "unit": "%"}, {"measurement": "inhibition at 10 µM", "setting": "PDE2; read-out: PDE2 percentage inhibition at 10 μM, Table 2, 10 μM compound", "result": 9, "unit": "%"}]}, {"compound": "COc1cc2c(c(OC)c1-c1cccnc1)C(c1cccc(C(N)=O)c1)=NCC(=O)N2", "note": "[Compound 20, 3-(6,8-Dimethoxy-2-oxo-7-pyridin-3-yl-2,3-dihydro-1H-benzo[e][1,4]diazepin-5-yl)-benzamide]", "values": [{"measurement": "inhibition at 10 µM", "setting": "5-HT transporter", "result": 16, "unit": "%"}, {"measurement": "PDE2 percentage inhibition at 10 μM", "setting": "PDE2; Table 1, 10 μM compound, 1 μM cyclic AMP", "result": 68, "unit": "%"}]}, {"compound": "COc1cc2c(c(OC)c1-c1ccccc1)C(c1cccc(C#N)c1)=NCC(=O)N2C", "note": "[Compound 6, 3-(6,8-Dimethoxy-1-methyl-2-oxo-7-phenyl-2,3-dihydro-1H-benzo[e][1,4]diazepin-5-yl)-benzonitrile]", "values": [{"measurement": "PDE4 percentage inhibition at 10 μM", "setting": "PDE4", "result": 37, "unit": "%"}, {"measurement": "IC50", "setting": "PDE2", "result": 1800, "unit": "nM"}, {"measurement": "inhibition at 10 µM", "setting": "PDE2; [1]", "result": 80, "unit": "%"}, {"measurement": "inhibition at 10 µM", "setting": "PDE3", "result": 40, "unit": "%"}]}, {"compound": "COc1cc2c(c(OC)c1-c1ccc(Cl)cc1)C(c1cccc(C(N)=O)c1)=NCC(=O)N2C", "note": "[Compound 18]", "values": [{"measurement": "inhibition at 10 µM", "setting": "5-HT transporter", "result": 0, "unit": "%"}, {"measurement": "PDE4 percentage inhibition at 10 μM", "setting": "PDE4", "result": 66, "unit": "%"}, {"measurement": "IC50", "setting": "PDE4; value in square brackets", "result": 6500, "unit": "nM"}, {"measurement": "inhibition at 10 µM", "setting": "PDE2; [1]", "result": 98, "unit": "%"}, {"measurement": "IC50", "setting": "PDE2; Table 1, value in square brackets, 1 μM cyclic AMP, read-out: PDE2 IC50", "result": 300, "unit": "nM"}]}]}
